Reference: patent US20120232062A1, “AZAINDAZOLES TO TREAT FLAVIVIRIDAE VIRUS INFECTION” (EIGER BIOPHARMACEUTICALS, INC., priority 2009, published 2012)
pEC50: −log10 of the molar value.

Tested on: HCV genotype 1b
Assay: HCV 1b replicon luciferase assay
Type: cell-based
Conditions: Hepatitis C virus, 48 h, read-out: EC50 in the 48 hour 1b replicon assay, 48 hour
Text: A suitable 1b HCV RNA replicon assay uses the Huh7 cell line which contains an HCV 1b RNA replicon with a stable luciferase (LUC) reporter. This construct contains modifications that make the cell line more robust and provides stable LUC expression for antiviral screening. The LUC reporter is used as an indirect measure of HCV replication. The activity of the LUC reporter is directly proportional to HCV RNA levels and positive control antiviral compounds behave comparably using LUC endpoints. […]
Fresh growth medium is prepared just before use. The container used in the procedure is a 10 cm diameter culture dish. HCV replicon reporter cell lines are used. Prepare complete medium: add FBS and appropriate additives as described in “Culture Media”, below. Pre-warm the medium in a 37° C. thermostat water bath. Remove the dish from a 37° C. CO2 incubator. Check the cell name and complete medium and passage number marked on the dish. Aspirate the medium carefully and add 1 ml PBS to rinse the cells. Remove and discard the solution and add 1 ml of 0.25% Trypsin/0.02% EDTA. Rinse the cells with the added Trypsin/EDTA to ensure all the cells have been rinsed. Remove the Trypsin/EDTA with a vacuum pump and incubate at 37° C. for 3-5 minutes. Examine the cell morphology under an inverted microscope to confirm that a single cell suspension is clearly visible. Add 3 ml of complete medium to the dish and suspend the cell by gentle pipetting. Count the cell numbers with a hematometer. Adjust cell density to 100 k/ml by adding appropriate volume of the complete medium. Add 100 μl of cell suspension to each well of a 96-well white plate; the cell density is thus 10 k per well. Mark the plate with cell name, passage number, seeding density, date and the name of the operator. Place the 96-well assay plate in 37° C. 5% CO2 incubator for 24 hours.
Compounds are prepared or provided at 25 mM in 100% DMSO. This is the compound stock solution. The dilution procedure should be performed in a cell culture hood. Dispense the stock solution into the second column of a 96-well plate. Prepare 9-step (10 concentrations total), 5-fold serial dilutions by transferring 10 μA of the compound into the next well containing 40 μA of DMSO. Repeat for all compounds. Aspirate 2 μl of the above compound solution from each well and add into 198 μl complete media using a 12-channel pipetter to obtain the 10-fold concentration compound solution with 1% DMSO, mix well.
Remove the 96-well assay plate from the 37° C./5% CO2 incubator, examine the cell morphology under an inverted microscope. In a cell culture hood, add 10 μl of the 10× concentration compounds solution into each well on the 96-well assay plate. All compound's dose responses are done in duplicate. The starting final concentration of the compounds is 25 μM, and DMSO final concentration 0.1%. Mark the plate with compound code(s) and concentrations. Place the 96-well assay plate into CO2 incubator for 48 hours. Add 30 μl of Stead-Glo Luciferase System (Promega) reagent to each well and mix by gentle shaking on a plate shaker for 5 minutes to allow throughout cell lysis. Measure the luminescence with Envision (Perkin Elmer) with an integration time of 2 seconds. Record and analyze the data.
The cell culture media is DMEM complete: DMEM (Life Technologies #41965-039) supplemented with 10% FCS, 2 mM Glutamin (Life Technologies #25030-024), Penicillin (100 IU/ml)/Streptomycin (100 μg/ml) (Life Technologies #15140-114) and 1× nonessential amino acids (Life Technologies #11140-035). G418 (“Geneticin”, Life Technologies): concentrations are given as weight per volume of the original substance. Specific activity of a typical batch is ca. 700 μg/mg as stated by the manufacturer. […] Therefore each new batch of G418 should be tested individually e.g. in an electroporation experiment using different selection conditions (0.2-1 mg/ml).

| SMILES | pEC50 |
| --- | --- |
| Cn1nc(CCCN2CCCC2)c2ccc(N3CCCCCCC3)nc21 [EBP1171] | > 5.52 |
| Cn1nc(C(=O)NCc2cccs2)c2cc(NC3CCCCC3)cnc21 [EBP1147] | > 5.52 |
| Cn1nc(C(=O)NC2CCNCC2)c2ccc(N3CCCCCC3)nc21 [EBP697] | > 5.52 |

Same assay, conditions: Hepatitis C virus, Huh-7, 48 h, Table 1; Huh7 HCV 1b replicon, luciferase reporter, 48 hours; read-out: 1b EC50

| SMILES | pEC50 |
| --- | --- |
| Cn1nc(C(=O)NC2CCN(C3CCCC3)CC2)c2ccc(N3CCCCCC3)nc21 [compound 1040] | 5.55 |
| C[C@@H]1CCC[C@H]1Oc1ccc2c(C(=O)NC3CCNCC3)nn(C)c2n1 [compound 945] | 5.59 |
| Cn1nc(-c2cnc(C3CCCN(CC4CCCCC4)C3)s2)c2ccc(N3CCCCCCC3)nc21 (stereo not shown) [compound 1255] | 5.52 |
| Cn1nc(C(=O)NC2CCN(Cc3cccc(-c4ccccc4)c3)CC2)c2ccc(OCc3cccc(-c4ccccc4)c3)nc21 [compound 970] | 5.05 |
| CC1CC(NC(=O)c2nnc3n(Cc4ccc(Cl)cc4)c(N4CCCCCC4)ccc2-3)CCN1 (stereo not shown) [compound 713] | 5.21 |
| Cn1nc(C(=O)NC2CCN(CC#N)CC2)c2ccc(NC3CCCCCCC3)nc21 [compound 1479] | 6.04 |
| Cn1nc(C(=O)NC2CCNCC2)c2cc(NC3CCCCC3)cnc21 [compound 991] | 5.05 |
| CC(C)c1ccc(CN2CCC(NC(=O)c3nn(C)c4nc(N5CCCCCC5)ccc34)CC2)cc1 [compound 1046] | 5.85 |
| CC(C)Cn1nc(C(=O)NC2CCN(CCN3CCCCC3)CC2)c2ccc(N3CCCCCC3)nc21 [compound 1487] | 6.08 |
| CC(C)CN1CCC(NC(=O)c2nn(C)c3nc(NC4CCCCCCC4)ccc23)CC1 [compound 1473] | 6.05 |
| O=C(NC1CCNC1)c1nnc2n(Cc3ccc(Cl)cc3)c(N3CCCCCC3)ccc1-2 (stereo not shown) [compound 712] | 5.09 |
| Cn1nc(C(=O)N2CCC(N)CC2)c2ccc(N3CCCCCC3)nc21 [compound 829] | 5.06 |
| Cn1nc(C(=O)NC2CCNCC2)c2ccc(NCC3CCCCC3)nc21 [compound 863] | 5.89 |
| Clc1ccc(Cn2nc(CNC3CCNCC3)c3ccc(N4CCCCCC4)nc32)cc1 [compound 762] | 5.54 |
| Cn1nc(-c2nnc(C3CCN(CC(F)F)C3)o2)c2ccc(N3CCCCCCC3)nc21 (stereo not shown) [compound 1366] | 5.40 |
| Cn1nc(COCC2CCNCC2)c2ccc(N3CCCCCC3)nc21 [compound 985] | 5.12 |
| Cn1nc(NC(=O)C2CCCNC2)c2ccc(N3CCCCCC3)nc21 (stereo not shown) [compound 1036] | 5.06 |
| Cn1nc(C(=O)NC2CCN(CC3CCCCC3)CC2)c2ccc(NC3CCCCCC3)nc21 [compound 1073] | 6.17 |
| CC1CCC(C)N1CCCc1nn(C)c2nc(N3CCCCCCC3)ccc12 (stereo not shown) [compound 1462] | 5.92 |

| SMILES | pEC50 |
| --- | --- |
| CC(C)CN(C)c1ccc2c(C(=O)NC3CCNCC3)nn(C)c2n1 [compound 690] | 5.92 |
| CC1CC(NC(=O)c2nn(C)c3nc(N4CCCCCCC4)ccc23)CCN1Cc1ccc(OC(F)F)cc1 (stereo not shown) [compound 1152] | 5.21 |
| Cn1nc(-c2cnc(C(=O)NCC3CCCNC3)s2)c2ccc(N3CCCCCC3)nc21 (stereo not shown) [compound 1130] | 6.00 |
| CCC(CC)Oc1ccc2c(COCCN3CCCCC3)nn(Cc3ccc(Cl)cc3)c2n1 [compound 792] | 5.34 |
| CCC(CC)Oc1ccc2c(NC(=O)CC3CCNCC3)nn(C)c2n1 [compound 953] | 5.19 |
| O=C(NC1CCCNC1)c1nn(Cc2ccc(Cl)cc2)c2nc(N3CCCCCC3)ccc12 (stereo not shown) [compound 705] | 5.57 |
| COCC1CCCCN1CCN1CCC(NC(=O)c2nn(C)c3nc(N4CCCCCC4)ccc23)CC1 (stereo not shown) [compound 1426] | 6.35 |
| Cn1nc(C(=O)NCc2ccccc2)c2ccc(N3CCCCCC3)nc21 [compound 830] | 5.14 |
| Cn1nc(C(=O)NC2CCN(C3CCCCC3)CC2)c2ccc(N3CCCCCC3)nc21 [compound 1594] | 5.74 |
| Cn1nc(-c2cnc(C3CCCNC3)s2)c2ccc(N3CCCCCCC3)nc21 (stereo not shown) [compound 1248] | 5.39 |
| Cn1nc(C(=O)NC2CCN(CC3CCOCC3)CC2)c2ccc(NC3CCCCCCC3)nc21 [compound 1476] | 6.24 |
| Cn1nc(-c2cnc(C3CCN(CC(F)F)C3)s2)c2ccc(N3CCCCCCC3)nc21 (stereo not shown) [compound 1269] | 5.34 |
| CC(C)CNc1ccc2c(C(=O)NC3CCCNC3)nn(C)c2n1 (stereo not shown) [compound 684] | 5.00 |
| Cn1nc(-c2nnc(C3CCCCN3CC3CCCCC3)o2)c2ccc(N3CCCCCCC3)nc21 (stereo not shown) [compound 1324] | 6.18 |
| Cn1nc(C(=O)NC2CCN(CC3CCCC3)CC2)c2ccc(N3CCCCCCC3)nc21 [compound 1305] | 6.31 |
| Cn1nc(COCC2CCCNC2)c2ccc(N3CCCCCC3)nc21 (stereo not shown) [compound 986] | 5.10 |
| Cn1nc(C(=O)NC2CCNCC2)c2ccc(OCc3ccccc3-c3ccco3)nc21 [compound 1100] | 5.85 |
| Cn1nc(C(=O)NC2CCN(CC3CCCCC3)CC2)c2ccc(NC3CCCCCCC3)nc21 [compound 1076] | 6.22 |
| O=C(NC1CC2CCCC(C1)N2)c1nn(Cc2ccc(Cl)cc2)c2nc(N3CCCCCC3)ccc12 (stereo not shown) [compound 751] | 5.70 |

| SMILES | pEC50 |
| --- | --- |
| CC(C)CN(C)c1ccc2c(C(=O)NC3CCN(CC4CCCCC4)CC3)nn(C)c2n1 [compound 1075] | 6.12 |
| Cn1nc(C(=O)NC2CCNCC2)c2ccc(OCc3ccccc3Br)nc21 [compound 1065] | 5.48 |
| CC(c1cccc(C(F)(F)F)c1)N1CCC(NC(=O)c2nn(C)c3nc(N4CCCCCCC4)ccc23)CC1 (stereo not shown) [compound 1312] | 5.57 |
| COC[C@@H]1CCCN1c1ccc2c(C(=O)NC3CCNCC3)n[nH]c2n1 [compound 778] | 4.77 |
| Cn1cc(-c2nn(C)c3nc(N4CCCCCC4)ccc23)nc1CC1CCNCC1 [compound 1126] | 5.11 |
| CC(C)c1ccc(CN(c2ccc3c(C(=O)NC4CCN(CCN5CCCCC5)CC4)nn(C)c3n2)C2CCCCCC2)cc1 [compound 1303] | 6.18 |
| COc1ccc(CN2CCC(NC(=O)c3nn(C)c4nc(N5CCCCCC5)ccc34)CC2)cc1 [compound 1044] | 6.12 |
| Cn1nc(C(=O)N[C@@H]2C[C@H]3CC[C@@H](C2)N3)c2ccc(N3CCCCCC3)nc21 [compound 979] | 5.31 |
| O=C(NC1CCNCC1)c1nn2c3nc(ccc13)OC/C=C/CCCCC2 [compound 877] | 5.48 |
| Cn1nc(C(=O)NC2CCN(CCN3CCCC3)CC2)c2ccc(N3CCCCCCC3)nc21 [compound 1296] | 6.30 |
| Cn1nc(NC(=O)c2ccncc2)c2ccc(N3CCCCCC3)nc21 [compound 839] | 5.60 |
| CCC(CC)Oc1ccc2c(NC(=O)C3CCCNC3)nn(C)c2n1 (stereo not shown) [compound 938] | 5.09 |
| Cn1nc(NC(=O)c2cccnc2Cl)c2ccc(N3CCCCCC3)nc21 [compound 832] | 5.48 |
| O=C(NC1CCNCC1)c1nn2c3nc(ccc13)OC/C=C\CCCCC2 [compound 876] | 5.12 |
| CC(C)CN1CCC(NC(=O)c2nn(C)c3nc(N4CCCCCCC4)ccc23)CC1 [compound 1236] | 5.20 |
| Cn1nc(C(=O)NC2CCN(Cc3ccc(-c4ccccc4)cc3)CC2)c2ccc(OCc3ccc(-c4ccccc4)cc3)nc21 [compound 973] | 5.27 |
| Cn1nc(C(=O)NC2CCNCC2)c2ccc(OCc3ccccc3)nc21 [compound 1051] | 5.54 |
| O=C(NC1CCNCC1)c1nn(Cc2ccc(Cl)cc2)c2nc(N3CCCCCC3)ccc12 [compound 704] | 5.60 |

Same assay, conditions: Table 1; Huh7 HCV 1b replicon, luciferase reporter, 48 hours; read-out: 1b EC50

| SMILES | pEC50 |
| --- | --- |
| CCC(CC)Oc1ccc2c(NC(=O)c3ccc(C)s3)nn(C)c2n1 [compound 963] | 5.57 |
| Cn1nc(C(=O)NC2CC3CCCC(C2)N3)c2ccc(N3CCCCCC3)nc21 (stereo not shown) [compound 831] | 5.57 |
